One molecule from publication PMC6934184, “Selective DNA-PKcs inhibition extends the therapeutic index of localized radiotherapy and chemotherapy” (The Journal of Clinical Investigation, 2019) can be followed below.

Structures are written as SMILES.

The experiment has as its target T1, TEC (Homo sapiens, UniProt P42680).
T1 construct: purchased Thermo Fisher Scientific (Life Technologies) SelectScreen
In words: SelectScreen LanthaScreen. It is filed as binding. The note with it: read-out: % displacement. The method in brief:
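SelectScreen broad panel; activity (Z'LYTE, Adapta) plus binding formats. ATP: Km app for CSF1R Z'LYTE; 10 for CAMK1 Adapta. Readout = % per kinase.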
(TR-FRET usually uses a lanthanide donor and a delayed reading to cut background.)

T1 sequence (P42680 whole entry): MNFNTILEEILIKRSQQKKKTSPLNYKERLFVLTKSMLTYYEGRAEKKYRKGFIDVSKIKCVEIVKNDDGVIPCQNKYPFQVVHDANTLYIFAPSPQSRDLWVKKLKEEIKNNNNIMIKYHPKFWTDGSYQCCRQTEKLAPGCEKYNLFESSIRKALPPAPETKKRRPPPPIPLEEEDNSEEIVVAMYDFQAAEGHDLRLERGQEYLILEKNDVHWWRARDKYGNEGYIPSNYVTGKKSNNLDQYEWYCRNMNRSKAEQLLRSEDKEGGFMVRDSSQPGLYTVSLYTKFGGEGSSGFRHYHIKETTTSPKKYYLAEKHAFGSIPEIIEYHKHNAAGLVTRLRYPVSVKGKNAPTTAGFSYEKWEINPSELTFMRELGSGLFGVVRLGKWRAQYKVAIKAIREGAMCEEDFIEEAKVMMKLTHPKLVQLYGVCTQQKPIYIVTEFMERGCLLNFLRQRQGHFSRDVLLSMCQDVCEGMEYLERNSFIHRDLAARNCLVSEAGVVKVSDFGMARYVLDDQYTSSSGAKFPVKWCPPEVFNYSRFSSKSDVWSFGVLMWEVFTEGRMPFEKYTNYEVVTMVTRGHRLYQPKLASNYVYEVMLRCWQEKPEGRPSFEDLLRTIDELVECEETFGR

With `CN(C(=O)CN1CCOCC1)c1ccc2sc3c(-c4cccc5c(=O)cc(N6CC7CCC(C6)O7)oc45)cccc3c2c1` [NU5455], the inhibition at 1 µM was 8.1%.
